Data on 2 molecules can be found in patent publication US20230321030A1, “KAEMPFEROL AGLYCONE-CONTAINING EXTRACT” (OTSUKA PHARMACEUTICAL CO., LTD., priority 2020, published 2023).

What all share (type): in vivo
For series [1], the system named is radish sprouts. In words: L-tyrosine or L-phenylalanine addition effect 1, radish sprouts. The conditions noted are these: for effect on the quercetin content / kaempferol content: 21 vol% oxygen; for kaempferol content: aqueous solution 25-400 mg/L, 10 ml/day for 7 days, dark. The protocol: (§1) The amount of kaempferol and quercetin was measured after all of the glycosides of kaempferol and quercetin were hydrolyzed and converted into aglycones. The actual procedure was as follows. After each sample was milled, 2.0 g of the milled product was weighed. After 40 mL of 70% ethanol was added, the sample was suspended with a Polytron homogenizer at room temperature at 20.000 rpm for 1 minute. 1 mL of the suspension was dispensed and weighed into a glass test tube, and 1 mL of 2 N hydrochloric acid was added. After being mixed with a vortex, the mixture was heated at 100° C. for 30 minutes with a heat block. After heating was completed, the resulting product was cooled with ice for at least 5 minutes. After cooling, 5 mL of hexane was added, and the mixture was shaken horizontally 20 times. After centrifugation at 3.000 rpm for 5 minutes at 4° C. with a cooled centrifuge, the upper layer was discarded. 5 mL of ethyl acetate was added, and the mixture was shaken horizontally with a shaker at room temperature at 250 rpm for 10 minutes. After centrifugation with a large cooled centrifuge at 4° C. at 3.000 rpm for 5 minutes, the upper layer was collected in a glass test tube for drying. 5 mL of ethyl acetate was added again to the lower layer, and the mixture was shaken horizontally with a shaker at room temperature at 250 rpm for 10 minutes. After centrifugation at 3.000 rpm at 4° C. for 5 minutes, the upper layer was collected in a glass test tube for drying. The collected upper layer was dried with nitrogen at 60° C. with a nitrogen spray dryer. After drying was complete, 1 mL of an aqueous solution of 70% ethanol was added, and the mixture was treated with an ultrasonic generator for 1 minute to dissolve it with a vortex. After being passed through a 0.45-µm filter, the solution was subjected to HPLC to perform KMP aglycone analysis, thereby determining the amount of KMP aglycones.
(§2) Aqueous solutions containing L-phenylalanine in a concentration of 25, 50, 100, 200, or 400 mg/L, aqueous solutions containing L-tyrosine in a concentration of 25, 50, 100, 200, or 400 mg/L, and aqueous solutions containing both L-tyrosine and L-phenylalanine in a concentration of 25, 50, 100, 200, or 400 mg/L were prepared. As test plants, radish sprouts and broccoli sprouts were prepared. The test plants were given one of the aqueous solutions in an amount of 10 ml/day for 7 days and grown in the dark in an oxygen concentration of 21 vol%. After 7 days, the content of kaempferol and quercetin was measured for each test plant in the same manner as in section B1-2 above. […] Additionally, quercetin was not detected in broccoli sprouts regardless of the addition of L-tyrosine and L-phenylalanine.

Series [2] deals with radish sprouts. In words: L-tyrosine or L-phenylalanine addition effect 2, radish sprouts at 21 or 17.5 vol% oxygen. The conditions noted are these: 25 or 50 mg/L, 7 days; for kaempferol content: in every oxygen concentration (21 or 17.5 vol%); for rate of increase in the kaempferol content: low-oxygen concentration (17.5 vol%). As to the method: as §1
Aqueous solutions containing L-phenylalanine in a concentration of 25 or 50 mg/L, and aqueous solutions containing L-tyrosine in a concentration of 25 or 50 mg/L were prepared. As a test plant, radish sprouts were prepared. The test plant was given one of the aqueous solution in an amount of 10 ml/day for 7 days and grown in the dark in an oxygen concentration of 21 vol% or 17.5 vol%. After 7 days, the content of kaempferol and quercetin was measured in the same manner as in section B1-2 above.

Another series concerns broccoli sprouts. In words: L-tyrosine or L-phenylalanine addition effect 1, broccoli sprouts. The conditions noted are these: for kaempferol content: aqueous solution 25-400 mg/L, 10 ml/day for 7 days, dark; for kaempferol content / quercetin content: 21 vol% oxygen; for quercetin content: regardless of the addition. The protocol: as §1, §2

In the case of `N[C@@H](Cc1ccccc1)C(=O)O` [L-phenylalanine], the “effect on the quercetin content” value in the series with radish sprouts [1] (25-400 mg/L, 7 days) is “no significant effect”. For the same molecule, the kaempferol content entry in the series on radish sprouts [1], with radish sprouts [2] and in the series on broccoli sprouts was “increased” throughout. The “rate of increase in the kaempferol content” value in the series on radish sprouts [2] is given as “significantly increased”. Also, the quercetin content entry with broccoli sprouts (7 days) was “not detected”.

With `N[C@@H](Cc1ccc(O)cc1)C(=O)O` [L-tyrosine], the “effect on plant growth (total length and weight)” value with radish sprouts [1] (25-400 mg/L, 7 days) is “no clear effect”; in the series on radish sprouts [2] (21 or 17.5 vol% oxygen) it was “no clear effect”; in the series on broccoli sprouts (25-400 mg/L, 7 days), “no clear effect”. In addition, the “effect on the quercetin content” value with radish sprouts [1] (25-400 mg/L, 7 days) is given as “no significant effect”. Further, the kaempferol content result in the series with radish sprouts [1], in the series with radish sprouts [2] and in the series on broccoli sprouts was “increased” throughout. Also, the “rate of increase in the kaempferol content” value in the series on radish sprouts [2] is reported as “significantly increased”. For the same molecule, the quercetin content result in the series on broccoli sprouts (7 days) was “not detected”.
